Experimental data reported in ChEMBL document CHEMBL1201862, “PubChem BioAssay data set” (2004).
Blank lines part the entries; values can stand above or below the compound they belong to. Active and inactive are the calls of the source.

How the values were obtained:
HEK293 = assay: EBV LMP1 TES2 canonical NF-kB signalling blockers – cell-based, HEK293, luciferase, cherry-pick, dose response (AID 588343); format: functional; settings: Homo sapiens
[1] = biological target: T1, Sentrin-specific protease 8 (Homo sapiens, UniProt Q96LD8); format: functional;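 further: luminescence read-out of SENP8 inhibition, dose-response confirmation following an ultra-high-throughput screen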
T1 sequence (Q96LD8 whole entry): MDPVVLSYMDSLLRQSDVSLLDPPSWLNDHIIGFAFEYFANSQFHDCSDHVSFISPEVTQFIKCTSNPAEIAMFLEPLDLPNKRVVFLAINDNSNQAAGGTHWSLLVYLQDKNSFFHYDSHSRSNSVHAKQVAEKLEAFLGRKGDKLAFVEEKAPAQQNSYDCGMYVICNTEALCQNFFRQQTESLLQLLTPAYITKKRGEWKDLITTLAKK

[2] = biological target: T2, Sentrin-specific protease 7 (Homo sapiens, UniProt Q9BQF6); format: functional;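 further: Luminescence-based dose-response confirmation of ultra-high-throughput screening hits, measuring inhibition of SENP7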
T2 sequence (Q9BQF6 whole entry): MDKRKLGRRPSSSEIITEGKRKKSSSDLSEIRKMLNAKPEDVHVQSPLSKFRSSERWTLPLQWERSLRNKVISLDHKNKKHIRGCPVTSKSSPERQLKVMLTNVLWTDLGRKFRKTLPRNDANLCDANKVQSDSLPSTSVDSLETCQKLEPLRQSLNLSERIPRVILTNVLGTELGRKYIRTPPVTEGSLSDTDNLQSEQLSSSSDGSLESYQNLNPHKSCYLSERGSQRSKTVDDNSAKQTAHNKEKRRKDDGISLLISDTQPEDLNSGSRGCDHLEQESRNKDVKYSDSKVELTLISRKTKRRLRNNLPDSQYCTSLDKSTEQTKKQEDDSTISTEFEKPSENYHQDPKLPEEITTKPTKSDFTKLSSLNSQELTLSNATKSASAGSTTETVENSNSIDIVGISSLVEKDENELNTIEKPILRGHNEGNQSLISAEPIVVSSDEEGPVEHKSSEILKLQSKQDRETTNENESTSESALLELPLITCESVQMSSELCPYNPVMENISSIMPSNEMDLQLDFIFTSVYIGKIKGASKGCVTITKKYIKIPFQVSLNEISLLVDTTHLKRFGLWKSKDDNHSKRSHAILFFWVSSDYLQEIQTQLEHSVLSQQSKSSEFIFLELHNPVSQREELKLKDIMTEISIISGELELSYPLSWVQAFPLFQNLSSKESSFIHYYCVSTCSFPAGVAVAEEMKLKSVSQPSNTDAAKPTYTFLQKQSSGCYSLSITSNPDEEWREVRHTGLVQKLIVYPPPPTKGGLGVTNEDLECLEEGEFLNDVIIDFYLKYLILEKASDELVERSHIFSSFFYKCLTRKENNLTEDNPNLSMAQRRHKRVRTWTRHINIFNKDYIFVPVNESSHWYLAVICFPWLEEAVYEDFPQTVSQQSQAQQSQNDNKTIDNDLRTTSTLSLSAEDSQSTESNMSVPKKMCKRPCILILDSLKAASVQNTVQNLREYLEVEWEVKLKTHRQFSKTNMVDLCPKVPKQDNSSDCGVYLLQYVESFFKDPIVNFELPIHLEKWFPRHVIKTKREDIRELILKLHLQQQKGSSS

[3] = biological target: T3, Sentrin-specific protease 6 (Homo sapiens, UniProt Q9GZR1); format: functional;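 further: Luminescence-based dose-response confirmatory assay of SENP6 inhibition, following up an ultra-high-throughput screen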
T3 sequence (Q9GZR1 whole entry): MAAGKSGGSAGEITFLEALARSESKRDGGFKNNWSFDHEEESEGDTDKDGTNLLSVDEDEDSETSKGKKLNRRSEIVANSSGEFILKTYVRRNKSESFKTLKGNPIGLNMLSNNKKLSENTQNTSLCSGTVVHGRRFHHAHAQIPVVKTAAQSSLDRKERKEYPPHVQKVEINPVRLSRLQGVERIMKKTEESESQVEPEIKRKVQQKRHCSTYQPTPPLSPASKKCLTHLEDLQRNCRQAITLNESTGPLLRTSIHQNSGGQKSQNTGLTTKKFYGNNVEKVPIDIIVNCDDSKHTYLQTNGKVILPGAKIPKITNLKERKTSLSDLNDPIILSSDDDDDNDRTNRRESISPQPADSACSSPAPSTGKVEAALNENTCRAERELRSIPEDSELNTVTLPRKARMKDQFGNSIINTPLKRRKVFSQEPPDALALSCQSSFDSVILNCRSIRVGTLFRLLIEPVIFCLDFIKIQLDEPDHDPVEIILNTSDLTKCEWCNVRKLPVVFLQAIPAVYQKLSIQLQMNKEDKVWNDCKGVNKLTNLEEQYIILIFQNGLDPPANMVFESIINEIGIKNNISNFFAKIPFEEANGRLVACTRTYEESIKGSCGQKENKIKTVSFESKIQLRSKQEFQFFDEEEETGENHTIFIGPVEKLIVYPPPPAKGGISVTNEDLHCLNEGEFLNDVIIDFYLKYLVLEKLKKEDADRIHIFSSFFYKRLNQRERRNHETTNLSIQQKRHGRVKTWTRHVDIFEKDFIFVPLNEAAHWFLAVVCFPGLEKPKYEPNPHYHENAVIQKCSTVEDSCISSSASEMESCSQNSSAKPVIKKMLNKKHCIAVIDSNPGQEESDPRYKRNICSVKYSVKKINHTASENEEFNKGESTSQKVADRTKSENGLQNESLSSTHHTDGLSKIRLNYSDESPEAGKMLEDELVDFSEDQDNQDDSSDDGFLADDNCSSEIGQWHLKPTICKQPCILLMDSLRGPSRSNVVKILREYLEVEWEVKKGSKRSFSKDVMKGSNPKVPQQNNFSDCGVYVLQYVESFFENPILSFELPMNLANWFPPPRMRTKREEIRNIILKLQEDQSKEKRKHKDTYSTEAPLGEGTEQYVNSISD

[4] = biological target: Glucose-6-phosphate 1-dehydrogenase (Homo sapiens, UniProt P11413); assay: inhibition of Homo sapiens G6PD, dose series – biochemical, fluorescence, selectivity assay for P. falciparum G6PD inhibitor project, dose response (AID 504792); format: functional
Aminopeptidase N = biological target: T4, Aminopeptidase N (Plasmodium falciparum FcB1/Columbia, UniProt O96935); assay: malaria alanyl aminopeptidase activity blockers – biochemical, fluorogenic H-Leu-NHMec substrate, 1536-well (AID 1445); parameters: species or system Plasmodium falciparum 3D7, 3D7
T4 sequence (O96935 whole entry): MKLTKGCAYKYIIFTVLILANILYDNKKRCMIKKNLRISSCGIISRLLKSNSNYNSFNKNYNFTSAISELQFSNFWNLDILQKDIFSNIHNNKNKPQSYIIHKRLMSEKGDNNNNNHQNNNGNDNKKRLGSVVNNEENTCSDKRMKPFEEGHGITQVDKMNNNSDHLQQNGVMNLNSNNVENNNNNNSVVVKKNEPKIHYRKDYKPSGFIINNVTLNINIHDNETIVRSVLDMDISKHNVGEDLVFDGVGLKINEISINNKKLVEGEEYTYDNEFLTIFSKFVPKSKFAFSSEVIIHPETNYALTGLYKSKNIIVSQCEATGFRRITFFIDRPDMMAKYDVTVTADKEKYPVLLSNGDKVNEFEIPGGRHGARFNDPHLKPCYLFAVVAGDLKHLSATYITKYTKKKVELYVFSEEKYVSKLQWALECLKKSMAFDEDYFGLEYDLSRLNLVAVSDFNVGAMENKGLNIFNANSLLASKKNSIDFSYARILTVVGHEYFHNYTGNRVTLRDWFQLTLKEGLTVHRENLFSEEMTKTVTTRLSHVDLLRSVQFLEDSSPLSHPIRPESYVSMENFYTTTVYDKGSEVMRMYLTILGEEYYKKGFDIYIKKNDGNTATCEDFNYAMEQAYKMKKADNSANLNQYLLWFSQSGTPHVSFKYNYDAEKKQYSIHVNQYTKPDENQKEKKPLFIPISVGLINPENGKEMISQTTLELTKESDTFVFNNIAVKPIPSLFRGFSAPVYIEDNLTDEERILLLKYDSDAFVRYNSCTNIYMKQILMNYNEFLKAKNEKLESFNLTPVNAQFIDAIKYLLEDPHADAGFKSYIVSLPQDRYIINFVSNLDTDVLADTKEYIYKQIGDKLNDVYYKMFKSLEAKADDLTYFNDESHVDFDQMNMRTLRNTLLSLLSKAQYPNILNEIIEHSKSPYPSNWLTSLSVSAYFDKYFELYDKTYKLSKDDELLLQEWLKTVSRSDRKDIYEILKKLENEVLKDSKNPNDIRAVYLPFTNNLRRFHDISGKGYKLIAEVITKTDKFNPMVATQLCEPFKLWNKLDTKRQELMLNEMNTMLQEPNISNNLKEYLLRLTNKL

[5] = NIH3T3 cell viability loss – ATP luminescence, mouse fibroblasts, counter-screen, dose response (AID 2010); format: functional, cell-based;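 further: cells exposed to compound for about 90 hours before reading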
[6] = Trypanosoma cruzi growth suppression in host cells – NIH3T3 host cells, beta-gal luminescence, confirmation (AID 2044); format: functional, cell-based;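 further: intracellular parasites grown in NIH/3T3 mouse fibroblasts as host cells; luminescent beta-galactosidase reporter signal from transgenic T. cruzi replicating inside host cells; inhibitors lower the luminescence signal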
[7] = biological target: T5, Carboxy-terminal domain RNA polymerase II polypeptide A small phosphatase 1 (Homo sapiens, UniProt Q9GZU7); assay: CTDSP1 inhibitors, concentration-response, biochemical, absorbance readout, ultra-high-throughput screen actives (AID 540297); format: functional
T5 sequence (Q9GZU7 whole entry): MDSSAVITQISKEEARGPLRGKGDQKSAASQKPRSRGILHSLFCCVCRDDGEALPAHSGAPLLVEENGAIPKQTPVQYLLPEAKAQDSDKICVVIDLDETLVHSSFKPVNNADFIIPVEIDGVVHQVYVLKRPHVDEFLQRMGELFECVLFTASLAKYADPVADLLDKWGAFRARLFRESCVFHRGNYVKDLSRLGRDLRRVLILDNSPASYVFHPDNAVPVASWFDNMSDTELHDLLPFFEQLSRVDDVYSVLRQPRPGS

Chain of Glucose-6-phosphate 1-dehydrogenase (P11413 whole entry): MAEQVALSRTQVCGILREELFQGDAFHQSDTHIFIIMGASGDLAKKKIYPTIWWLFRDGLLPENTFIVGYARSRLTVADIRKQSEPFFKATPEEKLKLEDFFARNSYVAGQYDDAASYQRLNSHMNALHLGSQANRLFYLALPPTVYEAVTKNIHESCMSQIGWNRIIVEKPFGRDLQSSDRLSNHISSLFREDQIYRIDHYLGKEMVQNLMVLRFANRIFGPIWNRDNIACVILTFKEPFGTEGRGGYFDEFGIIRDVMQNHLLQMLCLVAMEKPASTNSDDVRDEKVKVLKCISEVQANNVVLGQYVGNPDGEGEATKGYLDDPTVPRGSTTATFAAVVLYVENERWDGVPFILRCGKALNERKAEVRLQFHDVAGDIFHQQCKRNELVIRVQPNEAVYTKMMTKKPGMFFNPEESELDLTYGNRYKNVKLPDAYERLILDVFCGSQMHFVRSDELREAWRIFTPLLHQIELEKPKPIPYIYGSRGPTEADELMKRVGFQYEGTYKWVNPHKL

Structure (SMILES): COc1ccc(C=C2OC(O)=C(C(C)=O)C2=O)cc1
AC50 (HEK293): 6.16 µM (active)

Structure (SMILES): COc1cccc(CNc2ccc3[nH]c(O)nc3c2)c1OCc1ccc(F)cc1
IC50 [4]: > 80 µM (inactive)

Structure (SMILES): O=C(O)c1cccc(NC(S)=NC(NC(=O)c2ccccc2[N+](=O)[O-])C(Cl)(Cl)Cl)c1 (stereo not drawn)
IC50 (Aminopeptidase N): 58.6 µM (active)

Structure (SMILES): CCOc1ccc(NC(=O)c2ccc(N3CC4CC(C3)c3cccc(=O)n3C4)c(NC(=O)c3cccnc3)c2)cc1 (stereo not drawn)
AC50 (HEK293): > 350 µM (inactive)

Structure (SMILES): CC1=NN(c2nc(-c3ccc(C)cc3)cs2)C(=O)C1N=Nc1ccccc1O (stereo not drawn)
EC50 [5]: > 60 µM (not active)
EC50 [6]: 1.63 µM (active)
IC50 [7]: 3.69 µM (active)
IC50 (Aminopeptidase N): 3.37 µM (active)

Continued, in another order:

IC50 [2]: 5.88 µM (active)
IC50 [3]: 8.61 µM (active)
Structure (SMILES): CC(=O)Nc1nc(COc2ccc3ccccc3c2)cs1
IC50 [1]: 9.93 µM (active)

IC50 (Aminopeptidase N): 52.1 µM (active)
Structure (SMILES): COc1cc(/C=C(/C#N)c2nc3ccccc3[nH]2)ccc1OCc1ccc(C(=O)O)o1

IC50 (Aminopeptidase N): 68.1 µM (active)
Structure (SMILES): CCCN1C(=O)/C(=C/c2c(N3CCNC(=O)C3CC(=O)OC)nc3c(C)cccn3c2=O)SC1=S (stereo not drawn)
